Test results published in PubChem BioAssay (NCI).
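Cells were grown in 96-well plates and exposed to each compound for 48 hours at five concentrations; endpoints were interpolated linearly between bracketing concentrations, or set to the highest concentration if not reached. TGI denotes the concentration required for complete inhibition of growth.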

Experiments:
Experiment in all cases: NCI-60 cell line screen, 48 h
[1] = system: U251 CNS
[2] = system: OVCAR-5 ovarian
[3] = system: RXF 393 renal
[4] = system: SF-295 CNS
[5] = system: TK-10 renal
[6] = system: UACC-62 melanoma
[7] = system: UO-31 renal
[8] = system: MDA-MB-435
[9] = system: NCI-H23 lung
[10] = system: OVCAR-4 ovarian
[11] = system: SNB-19 CNS
[12] = system: SK-MEL-2 melanoma
[13] = system: M14 melanoma
[14] = system: SK-OV-3 ovarian
[15] = system: HCC-2998 colon
[16] = system: PC-3 prostate
[17] = system: MOLT-4 leukemia
[18] = system: T-47D breast
[19] = system: HT29 colon
[20] = system: MDA-MB-231 breast
[21] = system: MCF7 breast
[22] = system: 786-0 renal
[23] = system: IGROV1 ovarian
[24] = system: MDA-N
[25] = system: COLO 205 colon
[26] = system: OVCAR-3 ovarian
[27] = system: RPMI-8226 leukemia
[28] = system: DU-145 prostate
[29] = system: EKVX NSCLC
[30] = system: SW-620 colon
[31] = system: HOP-92 NSCLC
[32] = system: MALME-3M melanoma
[33] = system: CCRF-CEM leukemia
[34] = system: SK-MEL-5 melanoma
[35] = system: SK-MEL-28 melanoma
[36] = system: LOX IMVI melanoma
[37] = system: NCI-H522 lung
[38] = system: NCI-H226 lung
[39] = system: HOP-62 NSCLC
[40] = system: SF-539 CNS
[41] = system: NCI-H460 lung
[42] = system: SN12C renal
[43] = system: SR leukemia
[44] = system: UACC-257 melanoma
[45] = system: K-562 leukemia
[46] = system: ACHN renal
[47] = system: HCT-116 colon
[48] = system: BT-549 breast
[49] = system: HCT-15 colon
[50] = system: HS 578T breast
[51] = system: A498 renal
[52] = system: HL-60(TB) leukemia
[53] = system: A549 NSCLC
[54] = system: SF-268 CNS
[55] = system: CAKI-1 renal
[56] = system: OVCAR-8 ovarian
[57] = system: SNB-75 CNS
[58] = system: NCI/ADR-RES ovarian
[59] = system: KM12 colon

Measured: TGI

CC(=O)NCCCCN(CCCNC(C)=O)C(=O)CNS(=O)(=O)c1cccc2c(N(C)C)cccc12
not listed: [55] | [56] | [57] | [58] | [59]
> 100 µM: all other assays above

CCOC(=O)Cc1nnc2n(-c3ccccc3)c(=O)c3ccccc3n12
43.3 µM: [55]
not listed: [27] | [48] | [50]
> 100 µM: all other assays above

O=c1oc2ccccc2c(O)c1C(c1cnc2ccccc2c1)c1c(O)c2ccccc2oc1=O
35.4 µM: [6]
68 µM: [48]
52.7 µM: [57]
67.2 µM: [54]
90 µM: [52]
69.5 µM: [24]
97.7 µM: [17]
76.6 µM: [42]
80.6 µM: [50]
58.6 µM: [31]
not listed: [2] | [3] | [4] | [13] | [14] | [15] | [21] | [40] | [43] | [46] | [53]
> 100 µM: all other assays above

CC(NCc1c(O)ccc2ccc(=O)oc12)C(=O)O (stereo not given)
not listed: [48] | [51]
> 100 µM: all other assays above
